Reference: article PMC2821678 (Chemico-biological interactions, 2009)
Where two headings read alike, the source gives them in different places.

Key:
SK-MEL-28 melanoma cells [1] = assay: MTT cell viability, SK-MEL-28; format: cell-based, human
B16-F0 melanoma cells = assay: MTT cell viability, B16-F0; format: cell-based, murine; details: for IC50: read-out: IC50 (48 h) B16-F0
Mushroom tyrosinase [2] = assay: Tyrosinase mediated GSH depletion assay; format: biochemical; details: for % GSH depletion (2 h) Tyrosinase/O2: 2 h incubation
[3] = tested on: tyrosinase shRNA transfected SK-MEL-28 cells; assay: Drug sensitivity assay using tyrosinase shRNA transfected cells; format: cell-based, human
[4] = clinical trials terminated; cited from earlier work
Mushroom tyrosinase [5] = format: biochemical; details: pH 7.4; for Tyrosinase Kinetics AA (rate of AA oxidation): nM of AA per compound (μM) per tyrosinase (U/ml) per min; for Tyrosinase Kinetics NADH (rate of NADH oxidation): nM of NADH per compound (μM) per tyrosinase (U/ml) per min
[6] = tested on: amelanotic C32 melanoma cells; assay: Reactive oxygen species; format: cell-based, human
[7] = tested on: melanocytic SK-MEL-28 melanoma cells; assay: Reactive oxygen species; format: cell-based, human
[8] = tested on: melanocytic SK-MEL-28 melanoma cells; assay: Intracellular GSH measurement, SK-MEL-28; format: cell-based, human
[9] = tested on: amelanotic C32 melanoma cells; assay: Intracellular GSH measurement, C32; format: cell-based, human
SK-MEL-28 melanoma cells [10] = assay: Cell cycle analyses by flow cytometry; format: cell-based, human; details: 48 h
[11] = MTT cell viability, SW-620; format: cell-based; details: human, SW-620 colorectal adenocarcinoma cells
B16-F10 melanoma cells = assay: MTT cell viability, B16-F10; format: cell-based, murine; details: 75 μM
MTT cell viability, BJ = format: cell-based; details: human, BJ skin fibroblast cells
SK-MEL-5 cells = assay: MTT cell viability, SK-MEL-5; format: cell-based, human; details: 75 μM
MeWo cells = assay: MTT cell viability, MeWo; format: cell-based, human; details: 75 μM
amelanotic C32 cells = assay: MTT cell viability, C32; format: cell-based, human; details: 75 μM
[12] = MTT cell viability, Saos-2; format: cell-based; details: human, Saos-2 osteosarcoma cells
[13] = tested on: amelanotic SK-MEL-24 cells; assay: MTT cell viability, SK-MEL-24; format: cell-based; details: 75 μM
MTT cell viability, PC-3 = format: cell-based; details: human, PC-3 prostate cells
[14] = Homo sapiens, SK-MEL-28, 48 h, read-out: IC50 (48 h) SK-MEL-28
[15] = read-out: IC50 (48 h) SK-MEL-28, 48 h, MTT
[16] = 0.75 mM (750 μM), listed as C00002

Cc1ccc(O)cc1 [4-hydroxytoluene]
IC50 (SK-MEL-28 melanoma cells [1]; [14]): 2000 µM

OCc1ccc(O)cc1 [4-hydroxybenzyl alcohol]
IC50 (SK-MEL-28 melanoma cells [1]; [14]): 2000 µM
IC50 (B16-F0 melanoma cells; Mus musculus, B16F0, 48 h): 2200 µM

Cc1ccccc1O [2-hydroxytoluene]
IC50 (SK-MEL-28 melanoma cells [1]; [14]): 3200 µM
IC50 (B16-F0 melanoma cells; Mus musculus, B16F0, 48 h): 3200 µM

Cc1cccc(O)c1 [3-hydroxytoluene]
IC50 (SK-MEL-28 melanoma cells [1]; [14]): 2500 µM
IC50 (B16-F0 melanoma cells; Mus musculus, B16F0, 48 h): 2100 µM

COc1cccc(O)c1 [3-hydroxyanisole]
% GSH depletion (2 h) Tyrosinase/O2 (Mushroom tyrosinase [2]): 24±3%
IC50 (SK-MEL-28 melanoma cells [1]; [14]): 3400 µM
IC50 (B16-F0 melanoma cells; Mus musculus, B16F0, 48 h): 43 µM

CCOC(=O)c1cccc(O)c1 [Ethyl 3-hydroxybenzoate, ethyl 3-hydroxybenzoate]
IC50 (SK-MEL-28 melanoma cells [1]; [14]): 2100 µM
IC50 (B16-F0 melanoma cells; Mus musculus, B16F0, 48 h): 1900 µM

CC(=O)c1ccc(O)cc1 [4-hydroxyacetophenone]
IC50 (SK-MEL-28 melanoma cells [1]; [14]): 8000 µM
IC50 (B16-F0 melanoma cells; Mus musculus, B16F0, 48 h): 3000 µM

O=C(O)c1cccc(O)c1 [3-hydroxybenzoic acid]
IC50 (SK-MEL-28 melanoma cells [1]; [14]): 2300 µM
IC50 (B16-F0 melanoma cells; Mus musculus, B16F0, 48 h): 1800 µM

OCc1cccc(O)c1 [3-hydroxybenzyl alcohol]
% GSH depletion (2 h) Tyrosinase/O2 (Mushroom tyrosinase [2]): 29±3%
IC50 (SK-MEL-28 melanoma cells [1]; [14]): 5000 µM
IC50 (B16-F0 melanoma cells; Mus musculus, B16F0, 48 h): 4600 µM

O=C(O)c1ccccc1 [Benzoic acid, benzoic acid, reference compound]
% GSH depletion (2 h) Tyrosinase/O2 (Mushroom tyrosinase [2]): 12±2%
IC50 (SK-MEL-28 melanoma cells [1]; [14]): > 10000 µM
IC50 (B16-F0 melanoma cells; Mus musculus, B16F0, 48 h): 11000 µM

CCOC(=O)c1ccccc1 [Ethyl benzoate, ethyl benzoate, reference compound]
% GSH depletion (2 h) Tyrosinase/O2 (Mushroom tyrosinase [2]): 26±3%
IC50 (SK-MEL-28 melanoma cells [1]; [14]): 7000 µM
IC50 (B16-F0 melanoma cells; Mus musculus, B16F0, 48 h): > 10000 µM

O=C(O)c1ccc(O)cc1 [4-hydroxybenzoic acid]
% GSH depletion (2 h) Tyrosinase/O2 (Mushroom tyrosinase [2]): 30±5%
IC50 (SK-MEL-28 melanoma cells [1]; [14]): 11200 µM
IC50 (B16-F0 melanoma cells; Mus musculus, B16F0, 48 h): 4200 µM

O=C(O)c1ccccc1O [2-hydroxybenzoic acid]
% GSH depletion (2 h) Tyrosinase/O2 (Mushroom tyrosinase [2]): 0%
IC50 (SK-MEL-28 melanoma cells [1]; [14]): 5000 µM
IC50 (B16-F0 melanoma cells; Mus musculus, B16F0, 48 h): 5200 µM

COc1ccc(O)cc1 [4-hydroxyanisole]
cell toxicity when tyrosinase was silenced by shRNA plasmid ([3]; 4-HA 50 μM): significantly less cell toxicity
% GSH depletion Tyrosinase/O2 (Mushroom tyrosinase [2]; measurement conducted at 30 min): 95±3 %
IC50 (SK-MEL-28 melanoma cells [1]; [14]): 50 µM
liver toxicity in clinical trials [4]: serious liver toxicity
IC50 (B16-F0 melanoma cells; Mus musculus, B16F0, 48 h): 60 µM

Cc1ccccc1 [Toluene, toluene, reference compound]
IC50 (SK-MEL-28 melanoma cells [1]; [14]): 10000 µM
IC50 (B16-F0 melanoma cells; Mus musculus, B16F0, 48 h): > 10000 µM

2-hydroxyacetophenone
IC50 (SK-MEL-28 melanoma cells [1]; [15]): 4000 µM

CCOC(=O)c1ccc(OC)cc1 [E4MB, ethyl 4-methoxybenzoate]
Tyrosinase Kinetics AA (rate of AA oxidation) (Mushroom tyrosinase [5]): 8 nM
Tyrosinase Kinetics AA (rate of AA oxidation) (Mushroom tyrosinase [5]; listed as C00002): 8 nM ^**
Tyrosinase Kinetics NADH (rate of NADH oxidation) (Mushroom tyrosinase [5]): 50 nM
Tyrosinase Kinetics NADH (rate of NADH oxidation) (Mushroom tyrosinase [5]; listed as C00002): 50 nM ^**
Fold ROS formation (40 min) at IC50 ([6]; 750 μM, C32): 4 Fold
ROS formation ([6]; 750 μM-5 mM, C32): negligible
% GSH depletion (2 h) Tyrosinase/O2 (Mushroom tyrosinase [2]; listed as C00002): 5±3%
Fold ROS formation (40 min) at IC50 ([7]; 750 μM, SK-MEL-28): 9 Fold
ROS formation ([7]; 750 μM-5 mM, SK-MEL-28, in comparison to 4-HEB): significantly lower
IC50 (SK-MEL-28 melanoma cells [1]; Homo sapiens, SK-MEL-28, 48 h, read-out: IC50 (48 h) SK-MEL-28 cells): 750 µM
fold decrease in toxicity when compared to 4-HEB (SK-MEL-28 melanoma cells [1]; from IC50 (48 h), SK-MEL-28): 10 fold
Intracellular GSH (ICG) depletion (2 h) ([8]; 0.75 mM (750 μM)): 10%
Intracellular GSH (ICG) depletion (2 h) [8, 16]: 10%
Intracellular GSH depletion (2 h) ([8]; 1 mM): 13%
Intracellular GSH depletion (2 h) ([8]; 1.5 mM): 15%
Intracellular GSH (ICG) depletion (2 h) ([9]; 0.75 mM (750 μM)): 6%
Intracellular GSH (ICG) depletion (2 h) [9, 16]: 6%
Intracellular GSH depletion (2 h) ([9]; 1 mM): 7%
Intracellular GSH depletion (2 h) ([9]; 1.5 mM): 10%

CC(=O)c1cccc(O)c1 [3-hydroxyacetophenone]
IC50 (SK-MEL-28 melanoma cells [1]; [15]): 2000 µM
IC50 (B16-F0 melanoma cells; 48 h, MTT): 1400 µM

CC(=O)c1ccccc1 [Acetophenone, acetophenone, reference compound]
% GSH depletion (2 h) Tyrosinase/O2 (Mushroom tyrosinase [2]): 44±3%
IC50 (SK-MEL-28 melanoma cells [1]; [14]): > 10000 µM
IC50 (B16-F0 melanoma cells; Mus musculus, B16F0, 48 h): > 12000 µM

COc1ccccc1O [2-hydroxyanisole]
% GSH depletion (2 h) Tyrosinase/O2 (Mushroom tyrosinase [2]): 25±2%
IC50 (SK-MEL-28 melanoma cells [1]; [14]): 2200 µM
IC50 (B16-F0 melanoma cells; Mus musculus, B16F0, 48 h): 51 µM

CCOC(=O)c1ccccc1O [Ethyl 2-hydroxybenzoate, ethyl 2-hydroxybenzoate]
% GSH depletion (2 h) Tyrosinase/O2 (Mushroom tyrosinase [2]): 22±2%
IC50 (SK-MEL-28 melanoma cells [1]; [14]): 2000 µM
IC50 (B16-F0 melanoma cells; Mus musculus, B16F0, 48 h): 2600 µM

COc1ccccc1 [Anisole, anisole, reference compound]
% GSH depletion (2 h) Tyrosinase/O2 (Mushroom tyrosinase [2]): 21±3%
IC50 (SK-MEL-28 melanoma cells [1]; [14]): > 12000 µM
IC50 (B16-F0 melanoma cells; Mus musculus, B16F0, 48 h): > 5000 µM

OCc1ccccc1 [Benzyl alcohol, benzyl alcohol, reference compound]
% GSH depletion (2 h) Tyrosinase/O2 (Mushroom tyrosinase [2]): 0%
IC50 (SK-MEL-28 melanoma cells [1]; [14]): > 10000 µM
IC50 (B16-F0 melanoma cells; Mus musculus, B16F0, 48 h): 8000 µM

CCOC(=O)c1ccc(O)cc1 [Ethyl 4-hydroxybenzoate, ethyl 4-hydroxybenzoate]
Tyrosinase Kinetics AA (rate of AA oxidation) (Mushroom tyrosinase [5]; listed as C00001): 143 nM ^*
Tyrosinase Kinetics NADH (rate of NADH oxidation) (Mushroom tyrosinase [5]; listed as C00001): 389 nM ^*
toxicity prevented by transfection with tyrosinase shRNA clone 3 ([3]; 75 μM, 48 h, shRNA3 curtailed tyrosinase expression by 50%): 24±7%
Fold ROS formation (40 min) at IC50 ([6]; 75 μM, C32): 6 Fold
ROS formation ([6]; 75-1500 μM, C32, compared with SK-MEL-28): significantly less
Apoptosis (Sub G0/G1) (SK-MEL-28 melanoma cells [10]; 75 μM): 2.9±0.3 %
G1 (SK-MEL-28 melanoma cells [10]; 75 μM): 74.7±0.8%
G2/M (SK-MEL-28 melanoma cells [10]; 75 μM): 9.9±0.1%
S (SK-MEL-28 melanoma cells [10]; 75 μM): 12.4±0.7%
Apoptosis (Sub G0/G1) (SK-MEL-28 melanoma cells [10]; 150 μM): 3.1±0.2 %
G1 (SK-MEL-28 melanoma cells [10]; 150 μM): 72.1±0.7%
G2/M (SK-MEL-28 melanoma cells [10]; 150 μM): 10.6±0.9%
S (SK-MEL-28 melanoma cells [10]; 150 μM): 13.2±1.2%
Apoptosis (Sub G0/G1) (SK-MEL-28 melanoma cells [10]; 250 μM): 5.0±0.9 %
G1 (SK-MEL-28 melanoma cells [10]; 250 μM): 63.4±1.8 %
G2/M (SK-MEL-28 melanoma cells [10]; 250 μM): 10.7±0.7%
S (SK-MEL-28 melanoma cells [10]; 250 μM): 20.1±2.6 %
Apoptosis (Sub G0/G1) (SK-MEL-28 melanoma cells [10]; 500 μM): 6.2±0.8 %
G1 (SK-MEL-28 melanoma cells [10]; 500 μM): 59.8±1.6 %
G2/M (SK-MEL-28 melanoma cells [10]; 500 μM): 10.9±0.4%
S (SK-MEL-28 melanoma cells [10]; 500 μM): 22.1±0.9 %
% GSH depletion (2 h) Tyrosinase/O2 (Mushroom tyrosinase [2]): 24±4%
% GSH depletion (2 h) Tyrosinase/O2 (Mushroom tyrosinase [2]; listed as 4-HEB): 24%
% GSH depletion (2 h) Tyrosinase/O2 (Mushroom tyrosinase [2]; listed as C00001): 24±4%
Fold ROS formation (40 min) at IC50 ([7]; 75 μM, SK-MEL-28): 24 Fold
ROS formation ([7]; 75-1500 μM, various time points, SK-MEL-28): dose and time dependent increase
viability at 75 µM [11]: 89 ± 4%
anti-proliferative effect (SK-MEL-28 melanoma cells [1]; 75 μM, SK-MEL-28): 52±4%
IC50 (SK-MEL-28 melanoma cells [1]; [14]): 75 µM
anti-proliferative effect (B16-F10 melanoma cells): 60±8%
Intracellular GSH (ICG) depletion (2 h) ([8]; 75 μM, listed as C00001): 37%
Intracellular GSH (ICG) depletion (2 h) ([9]; 75 μM, listed as 4-HEB): 8%
Intracellular GSH (ICG) depletion (2 h) ([9]; 75 μM, listed as C00001): 8%
Intracellular GSH depletion (2 h) ([9]; 150 μM): 13%
viability at 75 µM (MTT cell viability, BJ): 89 ± 7%
anti-proliferative effect (SK-MEL-5 cells): 57±5%
anti-proliferative effect (MeWo cells): 55±8%
anti-proliferative effect (amelanotic C32 cells): 28±4%
viability at 75 µM [12]: 86 ± 1%
anti-proliferative effect (B16-F0 melanoma cells; 75 μM, B16-F0): 62±11%
IC50 (B16-F0 melanoma cells; Mus musculus, B16F0, 48 h): 190 µM
anti-proliferative effect [13]: 24±3%
viability at 75 µM (MTT cell viability, PC-3): 85 ± 3%

OCc1ccccc1O [2-hydroxybenzyl alcohol]
% GSH depletion (2 h) Tyrosinase/O2 (Mushroom tyrosinase [2]): 0%
IC50 (SK-MEL-28 melanoma cells [1]; [14]): 1500 µM
IC50 (B16-F0 melanoma cells; Mus musculus, B16F0, 48 h): 1100 µM
